Holding throughout (experiment): biochemical
Assay type in all cases: binding

The target in test [1] is HLA-DR DRB1*0101 (DR1) (Homo sapiens, UniProt P01903+P01911, A100R/D57E/F55L/F60I/F76Y/I96L/L162R/M171V/P40L/Q125E/R42F/V115G/Y59C). The conditions noted are these: DRB1 *0101.
Test [2] concerns the target HLA-DR DRB1*0301 (DR3) (Homo sapiens, UniProt P01903+P01911, A100K/A102G/A103R/A169T/F55Y/I96L/K41T/L162R/M171V/P40S/Q125H/Q178H/Q39Y/R42S/S66N/T106N/T262R/W38E/Y61H).
Test [3] addresses HLA-DR DRB1*0701 (DR7) (Homo sapiens, UniProt P01903+P01911, A100R/A102G/A103Q/D57E/D86V/E43K/F76Y/K127E/L162R/M171V/P40G/Q125H/Q99D/R33Q/R42Y/R54Q/S133A/S66F/T210M/V115G/Y107V/Y59L/Y89S). The conditions noted are these: DRB1 *0701.
Test [4] deals with HLA-DR DRB1*0802 (DR8) (Homo sapiens, UniProt P01903+P01911, A100R/A103L/A169T/F76Y/H45Y/I96F/K41T/L162R/M171V/P40S/Q125H/Q178H/Q39Y/Q99D/R218S/R42G/S66Y/V115G/W38E).
Test [5] addresses HLA-DR DRB1*0901 (DR9) (Homo sapiens, UniProt P01903+P01911, A100R/A103E/D57H/D86V/F55Y/F60I/F76Y/I96F/K127E/L162R/M171V/P40D/Q125H/Q99R/R33Q/R42F/S133A/S66N/T210M/V115G/W38K/Y107V/Y59G/Y89S). As to conditions: DRB1 *0901.
For test [6], the target named is HLA-DR DRB1*1101 (DR11) (Homo sapiens, UniProt P01903+P01911, A100R/A169T/A87E/I96F/K41T/L162R/M171V/P40S/Q125H/Q178H/Q39Y/Q99D/R42S/S66Y/T262R/V115G/W38E). As to conditions: DRB1 *1101.
For test [7], the target named is HLA-DR DRB1*1302 (DR13) (Homo sapiens, UniProt P01903+P01911, A100E/A169T/K41T/L162R/M171V/P40S/Q125H/Q178H/Q39Y/Q99D/R42S/S66N/T262R/V115G/W38E/Y61H). As to conditions: DRBI *1302.
Test [8] concerns the target HLA-DR DRB1*1501 (DR15) (Homo sapiens, UniProt P01903+P01911). As to conditions: DRBI *1501.
Test [9] concerns the target HLA-DR DRB3*0101 (DR52) (Homo sapiens, UniProt P01903+P79483).
Test [10] addresses HLA-DR DRB5*0101 (DR51) (Homo sapiens, UniProt P01903+Q30154). As to conditions: DRB5 *0101.
Test [11] deals with HLA-DR DRB1*0401 (DR4) (Homo sapiens, UniProt P01903+P01911, A100K/A169T/F76Y/I96L/K127E/L162R/M171V/N62H/P40V/Q125Y/R42H/S133A/S149N/S66Y/V115G/V209L/W38E). The conditions noted are these: DRB1 *0401.
Test [12] addresses HLA-DR DRB4*0101 (DR53) (Homo sapiens, UniProt P01903+P13762, G164S). As to conditions: DRB4 *0101.

No end group written: not given here. Bounds are passed on as bounds.

Data on 7 molecules can be found in patent US20060079453A1, “Hla binding peptides and their uses” (priority 2002, published 2006).

HLA-DR DRB1*0301 (DR3), sequence (P01903 26-254 limits assumed, other chains not shown): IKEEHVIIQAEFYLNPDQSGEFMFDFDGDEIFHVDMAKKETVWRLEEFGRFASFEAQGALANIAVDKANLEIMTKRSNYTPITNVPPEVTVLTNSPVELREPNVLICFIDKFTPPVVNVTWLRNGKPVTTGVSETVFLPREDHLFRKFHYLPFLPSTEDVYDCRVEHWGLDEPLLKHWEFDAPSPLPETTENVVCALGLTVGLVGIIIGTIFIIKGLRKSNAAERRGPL
HLA-DR DRB1*1302 (DR13), sequence (P01903 26-254 limits assumed, other chains not shown): as above
HLA-DR DRB1*1101 (DR11), sequence (P01903 26-254 limits assumed, other chains not shown): as above

Broadly, the IC50 is the point on the concentration scale where inhibition reaches its midpoint. Lower therefore signals higher potency. Regarding `CC[C@H](C)[C@H](NC(=O)[C@H](Cc1c[nH]c2ccccc12)NC(=O)[C@@H](NC(=O)[C@@H](NC(=O)[C@H](CO)NC(=O)[C@H](CC(C)C)NC(=O)[C@@H](N)[C@@H](C)O)C(C)C)[C@@H](C)O)C(=O)NCC(=O)N[C@@H](C)C(=O)N[C@@H](C)C(=O)N1CCC[C@H]1C(=O)N[C@@H](CC(C)C)C(=O)N[C@H](C(=O)N[C@@H](CC(C)C)C(=O)N[C@@H](CO)C(=O)O)[C@@H](C)CC`, the IC50 in [1] is 0.0031 µM; in test [2], more than 81.8 µM; in [3] it was 0.016 µM; in [4] it was 0.84 µM; in [5] it was 0.0054 µM; in test [6], 6.86 µM. The IC50 was determined as 0.642 µM in test [7], 0.097 µM in test [8], 6.03 µM in test [9] and 0.031 µM in test [10].
Turning to GRLEYTLKDRRNFDI, the IC50 in test [1] was 7.25 µM; in test [2], 0.03 µM; in test [3], 4.96 µM; in [4] it was 4.92 µM; in test [5] it was more than 77.3 µM; in [6], 5 µM. Besides, the figures for the IC50 in test [8], in test [9] and in test [10] were 0.168 µM, 9.9 µM and 0.796 µM, respectively.
Turning to ITDSRVLERYLLEAK, the half-inhibitory concentration (IC50) in test [1] is 1.57 µM; in test [2], 6.5 µM; in [11], 1.3 µM; in test [3], 7.5 µM; in test [4], 0.967 µM; in [5] it was more than 78.9 µM. Also, the 50% inhibitory concentration (IC50) in [6] is 5.28 µM; in test [7] it was more than 14.7 µM; in test [8], 0.018 µM; in test [9] it was more than 42.2 µM.
In the case of SNLELLRISLLLIQS, the half-inhibitory concentration (IC50) is 0.072 µM in test [1]; 43.5 µM in test [2]; 0.642 µM in [3]; more than 33.3 µM in test [4]; 3.42 µM in test [5]; 23.7 µM in [6]. For the same molecule, the IC50 in [8] is 0.059 µM; in [9], more than 91.9 µM; in test [10], 50.1 µM.
Regarding TSITSLYQLENYTN, the IC50 in [2] is 81.3 µM; in test [3] it was 6.06 µM; in test [4] it was 26.8 µM; in test [5], 9.95 µM; in [6] it was 1.1 µM; in [7], more than 17.1 µM. Further, the IC50 in [8] is 0.099 µM; in test [9], more than 95.2 µM; in test [10] it was 6.05 µM.
For the molecule `CC[C@H](C)[C@H](NC(=O)[C@@H](NC(=O)[C@H](Cc1c[nH]cn1)NC(=O)[C@@H](N)CC(C)C)C(C)C)C(=O)N[C@@H](CO)C(=O)N[C@@H](CC(N)=O)C(=O)N[C@@H](CC(=O)O)C(=O)N[C@H](C(=O)N[C@@H](CS)C(=O)N[C@@H](C)C(=O)N[C@@H](CCC(N)=O)C(=O)N[C@H](C(=O)N[C@@H](Cc1c[nH]cn1)C(=O)N1CCC[C@H]1C(=O)N[C@@H](CCC(N)=O)C(=O)O)C(C)C)C(C)C`, the IC50 in test [1] was 0.789 µM; in test [2], 8.32 µM; in test [11] it was 0.79 µM; in test [3], 17.5 µM; in [4], more than 123 µM; in test [5], 32.7 µM. For the same molecule, the IC50 was more than 50 µM in [6]; 22.8 µM in [8]; 1.89 µM in test [9]; 1.09 µM in test [12]; more than 200 µM in test [10].
Regarding `CC[C@H](C)[C@H](NC(=O)[C@H](CCCNC(=N)N)NC(=O)[C@@H](N)[C@@H](C)O)C(=O)N[C@@H](Cc1ccc(O)cc1)C(=O)N[C@@H](CC(N)=O)C(=O)N[C@H](C(=O)N[C@H](C(=O)NCC(=O)N[C@H](C(=O)N[C@@H](CC(C)C)C(=O)N[C@@H](CCCNC(=N)N)C(=O)NCC(=O)N[C@@H](C)C(=O)N[C@H](C(=O)N[C@@H](CCC(=O)O)C(=O)O)C(C)C)[C@@H](C)O)[C@@H](C)CC)C(C)C`, the half-maximal inhibitory concentration (IC50) was 0.014 µM in test [1]; 33.3 µM in test [2]; 0.0063 µM in test [11]; 4.81 µM in test [3]; 0.07 µM in [4]; 2.9 µM in [5]. The concentration for half-maximal inhibition (IC50) in test [6] turned out to be 0.045 µM; in test [7], 1.46 µM; in [9], 17.5 µM; in test [12], 0.447 µM; in [10], 0.032 µM.
